Test results from patent US20260191968A1, “PROTAC DEGRADERS OF MLLT1 AND/OR MLLT3” (DARK BLUE THERAPEUTICS LTD, priority 2024, published 2026).

Columns and labels:
MLLT1 = molecular target: T1, MLLT1 (Homo sapiens, UniProt Q03111); assay: MLLT1 degradation assay in MV4-11 cells (JESS chemiluminescent detection), three concentrations, 24 h; type: cell-based; details: with respect to DMSO control
T1 construct: host or cells: MV4-11
T1 sequence (Q03111 1-559): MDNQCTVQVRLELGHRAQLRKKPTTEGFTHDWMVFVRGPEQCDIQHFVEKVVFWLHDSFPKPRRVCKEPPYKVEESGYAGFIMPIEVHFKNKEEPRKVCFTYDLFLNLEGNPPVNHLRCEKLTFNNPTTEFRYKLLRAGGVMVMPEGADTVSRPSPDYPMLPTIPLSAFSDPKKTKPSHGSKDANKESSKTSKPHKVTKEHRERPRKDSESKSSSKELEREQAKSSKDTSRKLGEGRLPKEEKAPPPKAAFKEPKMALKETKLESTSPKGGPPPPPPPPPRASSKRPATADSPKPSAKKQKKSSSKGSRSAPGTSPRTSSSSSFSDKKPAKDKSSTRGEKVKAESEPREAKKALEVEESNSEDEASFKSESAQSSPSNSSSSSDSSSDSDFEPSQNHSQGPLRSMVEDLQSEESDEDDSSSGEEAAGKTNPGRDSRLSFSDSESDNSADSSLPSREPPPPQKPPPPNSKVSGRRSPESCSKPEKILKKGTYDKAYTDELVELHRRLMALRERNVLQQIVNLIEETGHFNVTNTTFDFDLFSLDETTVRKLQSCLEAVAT
Outline: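 MV4-11 cells treated 24 h at 37° C, 5% CO2 with 1000, 100 and 10 nM compound (0.1% DMSO final). MLLT1 quantified by automated capillary chemiluminescent immunodetection; band peak area expressed as % degradation relative to DMSO control.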

MV4-11 cells = assay: MV4-11 cellular proliferative assay, Assay Format B (CTG 2.0, 168 h); type: cell-based; details: Homo sapiens, 168 h (7 days), CTG 2.0, read-out: IC50 (MV4-11 cellular proliferative assay, Assay format B)
Outline: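 MV4-11 cells seeded overnight in IMDM + 10% FBS, then exposed to 10-point, 3-fold dilutions from 1 uM or 100 nM top concentration (0.3% DMSO final) for 168 h at 37 °C. CTG 2.0 luminescence read; % viability vs DMSO control fitted by four-parameter logistic regression.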

Compound | MLLT1% Degradation @ 0.01 μM (MLLT1) | MLLT1% Degradation @ 0.1 μM (MLLT1) | MLLT1% Degradation @ 1 μM (MLLT1) | IC50 (MV4-11 cells)
CN1CCC[C@@H]1c1cc2cnc(NC(=O)c3ccc(-c4cnn(CCCC5CCN(c6cccc(C(=O)N[C@H]7CCC(=O)NC7=O)n6)CC5)c4)cc3)cc2[nH]1 [Example 60, N—((S)-2,6-dioxopiperidin-3-yl)-6-(4-(3-(4-(4-((2-((R)-1-methylpyrrolidin-2-yl)-1H-pyrrolo[3,2-c]pyridin-6-yl)carbamoyl)phenyl)-1H-pyrazol-1-yl)propyl)piperidin-1-yl)picolinamide] | A (Category A: A ≥ 75% degradation) | A (Category A: A ≥ 75% degradation) | A (Category A: A ≥ 75% degradation) | ≤ 100 nM
CN1CCC[C@@H]1c1cc2cnc(NC(=O)c3ccc(-c4cnn(CCOC5CCN(c6cccc(C(=O)N[C@H]7CCC(=O)NC7=O)n6)CC5)c4)cc3)cc2[nH]1 [Example 61, N—((S)-2,6-dioxopiperidin-3-yl)-6-(4-(2-(4-(4-((2-((R)-1-methylpyrrolidin-2-yl)-1H-pyrrolo[3,2-c]pyridin-6-yl)carbamoyl)phenyl)-1H-pyrazol-1-yl)ethoxy)piperidin-1-yl)picolinamide] | A (Category A: A ≥ 75% degradation) | A (Category A: A ≥ 75% degradation) | B (Category B: 50% ≤ B < 75% degradation) | ≤ 100 nM
CN1CCC[C@@H]1c1cc2cnc(NC(=O)c3cnc(N4CCC(C#Cc5cccc6c5CN(C5CCC(=O)NC5=O)C6=O)CC4)nc3)cc2[nH]1 (stereo partly drawn) [Example 65, 2-(4-((2-(2,6-dioxopiperidin-3-yl)-1-oxoisoindolin-4-yl)ethynyl)piperidin-1-yl)-N-(2-((R)-1-methylpyrrolidin-2-yl)-1H-pyrrolo[3,2-c]pyridin-6-yl)pyrimidine-5-carboxamide] | B (Category B: 50% ≤ B < 75% degradation) | B (Category B: 50% ≤ B < 75% degradation) | B (Category B: 50% ≤ B < 75% degradation) | ≤ 100 nM
CN1CCC[C@@H]1c1cc2cnc(NC(=O)c3ccc(OCC#Cc4cccc5c4n(C)c(=O)n5C4CCC(=O)NC4=O)cc3)cc2[nH]1 (stereo partly drawn) [Example 66, 4-((3-(1-(2,6-dioxopiperidin-3-yl)-3-methyl-2-oxo-2,3-dihydro-1H-benzo[d]imidazol-4-yl)prop-2-yn-1-yl)oxy)-N-(2-((R)-1-methylpyrrolidin-2-yl)-1H-pyrrolo[3,2-c]pyridin-6-yl)benzamide] | A (Category A: A ≥ 75% degradation) | A (Category A: A ≥ 75% degradation) | A (Category A: A ≥ 75% degradation) | ≤ 100 nM
CN1CCC[C@@H]1c1cc2cnc(NC(=O)c3ccc(N4CCC(c5ccc(-c6cccc7c6CN(C6CCC(=O)NC6=O)C7=O)cc5)CC4)nc3)cc2[nH]1 (stereo partly drawn) [Example 67, 6-(4-(4-(2-(2,6-dioxopiperidin-3-yl)-1-oxoisoindolin-4-yl)phenyl)piperidin-1-yl)-N-(2-((R)-1-methylpyrrolidin-2-yl)-1H-pyrrolo[3,2-c]pyridin-6-yl)nicotinamide] | A (Category A: A ≥ 75% degradation) | A (Category A: A ≥ 75% degradation) | A (Category A: A ≥ 75% degradation) | ≤ 100 nM
CN1CCC[C@@H]1c1cc2cnc(NC(=O)c3ccc(N4CCC(C5CCN(c6cccc7c6CN(C6CCC(=O)NC6=O)C7=O)CC5)CC4)nc3)cc2[nH]1 (stereo partly drawn) [Example 75, 6-(1′-(2-(2,6-dioxopiperidin-3-yl)-1-oxoisoindolin-4-yl)-[4,4′-bipiperidin]-1-yl)-N-(2-((R)-1-methylpyrrolidin-2-yl)-1H-pyrrolo[3,2-c]pyridin-6-yl)nicotinamide] | A (Category A: A ≥ 75% degradation) | A (Category A: A ≥ 75% degradation) | A (Category A: A ≥ 75% degradation) | ≤ 100 nM
CN1CCC[C@@H]1c1cc2cnc(NC(=O)c3ccc(OCCC4CCN(c5cccc6c5C(=O)N(C5CCC(=O)NC5=O)C6=O)CC4)cc3)cc2[nH]1 (stereo partly drawn) [Example 82, 4-(2-(1-(2-(2,6-dioxopiperidin-3-yl)-1,3-dioxoisoindolin-4-yl)piperidin-4-yl)ethoxy)-N-(2-((R)-1-methylpyrrolidin-2-yl)-1H-pyrrolo[3,2-c]pyridin-6-yl)benzamide] | B (Category B: 50% ≤ B < 75% degradation) | A (Category A: A ≥ 75% degradation) | A (Category A: A ≥ 75% degradation) | ≤ 100 nM
CN1CCC[C@@H]1c1cc2cnc(NC(=O)c3ccc(OCCC4CCN(c5ccc6c(c5)C(=O)N(C5CCC(=O)NC5=O)C6=O)CC4)cc3)cc2[nH]1 (stereo partly drawn) [Example 83, 4-(2-(1-(2-(2,6-dioxopiperidin-3-yl)-1,3-dioxoisoindolin-5-yl)piperidin-4-yl)ethoxy)-N-(2-((R)-1-methylpyrrolidin-2-yl)-1H-pyrrolo[3,2-c]pyridin-6-yl)benzamide] | A (Category A: A ≥ 75% degradation) | A (Category A: A ≥ 75% degradation) | B (Category B: 50% ≤ B < 75% degradation) | ≤ 100 nM
CN1CCC[C@@H]1c1cc2cnc(NC(=O)c3ccc(N4CCC(OCc5ccc(-c6cccc7c6CN(C6CCC(=O)NC6=O)C7=O)cc5)CC4)cc3)cc2[nH]1 (stereo partly drawn) [Example 85, 4-(4-((4-(2-(2,6-dioxopiperidin-3-yl)-1-oxoisoindolin-4-yl)benzyl)oxy)piperidin-1-yl)-N-(2-((R)-1-methylpyrrolidin-2-yl)-1H-pyrrolo[3,2-c]pyridin-6-yl)benzamide] | C (Category C: 25% ≤ C < 50% degradation) | A (Category A: A ≥ 75% degradation) | B (Category B: 50% ≤ B < 75% degradation) | ≤ 100 nM
CN1CC2(CC2)CC1c1cc2cnc(NC(=O)c3ccc(CCCCC#Cc4cccc5c4CN(C4CCC(=O)NC4=O)C5=O)nc3)cc2[nH]1 (stereo not drawn) [Example 86, 6-(6-(2-(2,6-dioxopiperidin-3-yl)-1-oxoisoindolin-4-yl)hex-5-yn-1-yl)-N-(2-((rel-R)-5-methyl-5-azaspiro[2.4]heptan-6-yl)-1H-pyrrolo[3,2-c]pyridin-6-yl)nicotinamide] | A (Category A: A ≥ 75% degradation) | A (Category A: A ≥ 75% degradation) | B (Category B: 50% ≤ B < 75% degradation) | ≤ 100 nM
CN(CCC#Cc1cccc2c1CN(C1CCC(=O)NC1=O)C2=O)c1ccc(C(=O)Nc2cc3[nH]c([C@H]4CCCN4C)cc3cn2)cc1 (stereo partly drawn) [Example 87, 4-((4-(2-(2,6-dioxopiperidin-3-yl)-1-oxoisoindolin-4-yl)but-3-yn-1-yl)(methyl)amino)-N-(2-((R)-1-methylpyrrolidin-2-yl)-1H-pyrrolo[3,2-c]pyridin-6-yl)benzamide] | A (Category A: A ≥ 75% degradation) | A (Category A: A ≥ 75% degradation) | B (Category B: 50% ≤ B < 75% degradation) | ≤ 100 nM
CN1CCC[C@@H]1c1cc2cnc(NC(=O)c3ccc(N4CCN(C(=O)CC5CCN(c6cccc7c6CN(C6CCC(=O)NC6=O)C7=O)CC5)CC4)cc3)cc2[nH]1 (stereo partly drawn) [Example 88, 4-(4-(2-(1-(2-(2,6-dioxopiperidin-3-yl)-1-oxoisoindolin-4-yl)piperidin-4-yl)acetyl)piperazin-1-yl)-N-(2-((R)-1-methylpyrrolidin-2-yl)-1H-pyrrolo[3,2-c]pyridin-6-yl)benzamide] | B (Category B: 50% ≤ B < 75% degradation) | A (Category A: A ≥ 75% degradation) | B (Category B: 50% ≤ B < 75% degradation) | ≤ 100 nM
CN1CCC[C@@H]1c1cc2cnc(NC(=O)c3cnc(N4CCN(CC#Cc5cccc6c5CN(C5CCC(=O)NC5=O)C6=O)CC4)nc3)cc2[nH]1 (stereo partly drawn) [Example 89, 2-(4-(3-(2-(2,6-dioxopiperidin-3-yl)-1-oxoisoindolin-4-yl)prop-2-yn-1-yl)piperazin-1-yl)-N-(2-((R)-1-methylpyrrolidin-2-yl)-1H-pyrrolo[3,2-c]pyridin-6-yl)pyrimidine-5-carboxamide] | A (Category A: A ≥ 75% degradation) | A (Category A: A ≥ 75% degradation) | C (Category C: 25% ≤ C < 50% degradation) | ≤ 100 nM
